Data from patent publication US6335339B1, “Triazine antiviral compounds” (Scriptgen Pharmaceuticals, Inc., priority 1998, dated 2002).

Experiments:
2.2.15 cells = test: neutral red dye uptake cytotoxicity; type: cell-based; details: 9 days treatment, read-out: 50% Cell Death CC50
Summary of the method: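 Confluent 2.2.15 cultures, same conditions as antiviral assay, treated daily for 9 days with 4 concentrations (3.3-fold dilutions), triplicate wells. 24 hours after the final dose, cells stained 30 minutes with 0.01% neutral red, dye extracted and A510 read; values as % of untreated cultures, CC50 as 50% cell death.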

HIV derived RRE RNA = test: heterologous hybridization inhibition assay with RRE RNA; type: binding; details: radiolabeled RRE RNA, rRNA competitor

Compound | CC50 (2.2.15 cells) | RRE + rRNA IC50 (μM) (HIV derived RRE RNA) | IC50 (HIV derived RRE RNA)
C(=NNc1nc(Nc2ccccc2)nc(N2CCCCC2)n1)c1ccccc1 [Compound 3] | > 100 µM | inactive | –
Cc1[nH]c2ccccc2c1C=NNc1nc(Nc2ccccc2)nc(N2CCOCC2)n1 [Compound 4] | 3.7 µM | inactive | –
FC(F)(F)c1cccc(Nc2nc(Nc3cccc(Br)c3)nc(N3CCOCC3)n2)c1 [Compound 38] | 125 µM | inactive | –
CCCCN(CCCC)c1nc(NN=Cc2c[nH]c3ccccc23)nc(Nc2ccc([N+](=O)[O-])cc2)n1 [Compound 39] | 5.3 µM | inactive | –
Cc1ccc(Nc2nc(NN=Cc3ccc(Cl)c(Cl)c3)nc(Nc3ccccc3)n2)c(C)c1 [Compound 40] | 136 µM | inactive | –
O=[N+]([O-])c1ccc(Nc2nc(N/N=C/c3cccc(Cl)c3)nc(N3CCCCC3)n2)cc1 [Compound 41] | > 300 µM | inactive | –
Cc1ccc(Nc2nc(NN=Cc3ccc(Cl)cc3)nc(Nc3ccccc3)n2)c(C)c1 [Compound 42] | 237 µM | inactive | –
Brc1cc2c(cc1C=NNc1nc(NCc3ccccc3)nc(Nc3ccccc3)n1)OCO2 [Compound 43] | 87 µM | inactive | –
COc1ccc(C=NNc2nc(Nc3ccc([N+](=O)[O-])cc3)nc(N3CCCCC3)n2)cc1 [Compound 44] | 285 µM | inactive | –
O=[N+]([O-])c1ccc(C=NNc2nc(Nc3ccccc3)nc(NC3CCCCC3)n2)cc1 [Compound 46] | > 100 µM | inactive | –
Cc1ccc(Nc2nc(NN=Cc3cccc(Br)c3)nc(Nc3ccccc3)n2)c(C)c1 [Compound 49] | 140 µM | inactive | –
Cc1[nH]c2ccccc2c1C=NNc1nc(NCc2ccccc2)nc(Nc2ccccc2)n1 [Compound 50] | 30 µM | inactive | –
Cc1ccc(Nc2nc(NN=Cc3ccc4c(c3)OCO4)nc(Nc3ccccc3)n2)c(C)c1 [Compound 51] | 130 µM | inactive | –
O=[N+]([O-])c1cc(C=NNc2nc(Nc3ccccc3)nc(N3CCOCC3)n2)ccc1Cl [Compound 52] | 11 µM | inactive | –
Oc1ccc(Nc2nc(Nc3cccc(C(F)(F)F)c3)nc(N3CCOCC3)n2)cc1 [Compound 53] | 72 µM | inactive | –
CC(C)c1ccc(C=NNc2nc(Nc3ccc([N+](=O)[O-])cc3)nc(N3CCCCCC3)n2)cc1 [Compound 56] | 63 µM | inactive | –
COc1ccc(C=NNc2nc(Nc3ccccc3)nc(Nc3ccc(C)cc3C)n2)c(OC)c1 [Compound 61] | 1.3 µM | inactive | –
CC(C)c1ccc(C=NNc2nc(Nc3ccc([N+](=O)[O-])cc3)nc(N3CCCCC3)n2)cc1 [Compound 62] | > 100 µM | inactive | –
CCN(CC)c1nc(N/N=C/c2ccc([N+](=O)[O-])cc2)nc(Nc2cc(C)ccc2C)n1 [Compound 63] | > 100 µM | inactive | –
CNc1nc(NN=Cc2ccccc2[N+](=O)[O-])nc(Nc2ccccc2)n1 [Compound 65] | 17 µM | inactive | –
CC(C)(C)Nc1nc(NCc2ccccc2)nc(NN=Cc2ccc3c(c2)OCO3)n1 [Compound 67] | > 100 µM | inactive | –
CCN(CC)c1nc(NN=Cc2ccc(F)cc2)nc(Nc2ccc([N+](=O)[O-])cc2)n1 [Compound 68] | > 300 µM | inactive | –
CCCCN(CCCC)c1nc(NN=C(C)c2ccccc2)nc(Nc2ccc([N+](=O)[O-])cc2)n1 [Compound 74] | > 100 µM | inactive | –
CCN(CC)c1nc(NN=Cc2cc([N+](=O)[O-])ccc2OC)nc(Nc2cc(C)ccc2C)n1 [Compound 85] | 209 µM | inactive | –
Cc1[nH]c2ccccc2c1C=NNc1nc(Nc2ccccc2)nc(N2CCCCC2)n1 [Compound 88] | > 100 µM | – | 938 µM
C(=Cc1ccccc1)C=NNc1nc(NCc2ccccc2)nc(Nc2ccccc2)n1 [Compound 91] | > 300 µM | – | 800 µM
CC(C)(C)Nc1nc(NCc2ccccc2)nc(N/N=C/c2ccccc2F)n1 [Compound 93, 2-fluorobenzaldehyde N-[4-(benzylamino)-6-(tert-butylamino)-1,3,5-triazin-2-yl]hydrazone] | – | Inactive | –
COc1ccccc1C=NNc1nc(Nc2ccc([N+](=O)[O-])cc2)nc(Nc2ccc(C)c(C)c2)n1 [Compound 94] | > 300 µM | – | 250 µM
